Experimental data: paper PMC10033419, “Blocking NS3–NS4B interaction inhibits dengue virus in non-human primates” (Nature, 2023)
≈ marks a conversion by molar mass, not a printed value. Like-named read-outs stand apart in the source and are kept apart here.

System: DENV-2 RL
Assay: microbe, parasite or virus in culture
Type: cell-based
Conditions: Dengue virus, DENV2, Vero

In the case of COc1cc(N[C@H](C(=O)c2c[nH]c3ccc(OC(F)(F)F)cc23)c2ccc(Cl)cc2OC)cc(S(C)(=O)=O)c1 [JNJ-1802], the EC50 (read-out: EC50 values [Well 1], A sample, passage 32) is reported as 100 ng/mL (≈ 172 nM), the EC50 (read-out: EC50 values [Well 1], A sample, passage 33) is reported as 200 ng/mL (≈ 343 nM) and the EC50 (read-out: EC50 values [Well 1], A sample, passage 34) is reported as 200 ng/mL (≈ 343 nM). For the same compound, the EC50 (read-out: EC50 values [Well 1], A sample, passage 35) was 200 ng/mL (≈ 343 nM), the EC50 (read-out: EC50 values [Well 1], A sample, passage 36) was 200 ng/mL (≈ 343 nM) and the EC50 (read-out: EC50 values [Well 1], A sample, passage 37) was 400 ng/mL (≈ 686 nM). It also gave an EC50 (read-out: EC50 values [Well 1], A sample, passage 38) of 400 ng/mL (≈ 686 nM), an EC50 (read-out: EC50 values [Well 1], A sample, passage 39) of 1000 ng/mL (≈ 1720 nM) and an EC50 (read-out: EC50 values [Well 1], A sample, passage 40) of 1000 ng/mL (≈ 1720 nM). It also gave an EC50 (read-out: EC50 values [Well 1], A sample, passage 41) of 1000 ng/mL (≈ 1720 nM), an EC50 (read-out: EC50 values [Well 1], A sample, passage 42 (END)) of 1000 ng/mL (≈ 1720 nM) and an EC50 (read-out: EC50 values [Well 1], B sample, passage 1) of 0.049 ng/mL (≈ 0.0841 nM). For the same compound, the EC50 (read-out: EC50 values [Well 1], B sample, passage 2) was 0.049 ng/mL (≈ 0.0841 nM), the EC50 (read-out: EC50 values [Well 1], B sample, passage 3) was 0.049 ng/mL (≈ 0.0841 nM) and the EC50 (read-out: EC50 values [Well 1], B sample, passage 4) was 0.049 ng/mL (≈ 0.0841 nM). For the same compound, the EC50 (read-out: EC50 values [Well 1], B sample, passage 5) was 0.049 ng/mL (≈ 0.0841 nM), the EC50 (read-out: EC50 values [Well 1], B sample, passage 11) was 0.195 ng/mL (≈ 0.334 nM) and the EC50 (read-out: EC50 values [Well 1], B sample, passage 12) was 0.195 ng/mL (≈ 0.334 nM). For the same compound, the EC50 (read-out: EC50 values [Well 1], B sample, passage 13) was 0.391 ng/mL (≈ 0.671 nM), the EC50 (read-out: EC50 values [Well 1], B sample, passage 16) was 0.195 ng/mL (≈ 0.334 nM) and the EC50 (read-out: EC50 values [Well 1], B sample, passage 17) was 0.195 ng/mL (≈ 0.334 nM). The EC50 (read-out: EC50 values [Well 1], B sample, passage 18) was 0.195 ng/mL (≈ 0.335 nM), the EC50 (read-out: EC50 values [Well 1], B sample, passage 19) was 0.391 ng/mL (≈ 0.67 nM) and the EC50 (read-out: EC50 values [Well 1], B sample, passage 20) was 0.391 ng/mL (≈ 0.67 nM). For the same compound, the EC50 (read-out: EC50 values [Well 1], B sample, passage 21) was 0.391 ng/mL (≈ 0.67 nM), the EC50 (read-out: EC50 values [Well 1], B sample, passage 22) was 0.391 ng/mL (≈ 0.67 nM) and the EC50 (read-out: EC50 values [Well 1], B sample, passage 24) was 1.56 ng/mL (≈ 2.68 nM). It also gave an EC50 (read-out: EC50 values [Well 1], B sample, passage 25) of 3.13 ng/mL (≈ 5.37 nM), an EC50 (read-out: EC50 values [Well 1], B sample, passage 26) of 6.25 ng/mL (≈ 10.7 nM) and an EC50 (read-out: EC50 values [Well 1], B sample, passage 27) of 6.25 ng/mL (≈ 10.7 nM). It also gave an EC50 (read-out: EC50 values [Well 1], B sample, passage 28) of 6.25 ng/mL (≈ 10.7 nM), an EC50 (read-out: EC50 values [Well 1], B sample, passage 29) of 25 ng/mL (≈ 42.9 nM) and an EC50 (read-out: EC50 values [Well 1], B sample, passage 30) of 25 ng/mL (≈ 42.9 nM). The EC50 (read-out: EC50 values [Well 1], B sample, passage 31) was 31.3 ng/mL (≈ 53.7 nM), the EC50 (read-out: EC50 values [Well 1], B sample, passage 32) was 31.3 ng/mL (≈ 53.7 nM) and the EC50 (read-out: EC50 values [Well 1], B sample, passage 33) was 62.5 ng/mL (≈ 107 nM). It also gave an EC50 (read-out: EC50 values [Well 1], B sample, passage 34) of 62.5 ng/mL (≈ 107 nM), an EC50 (read-out: EC50 values [Well 1], B sample, passage 35) of 62.5 ng/mL (≈ 107 nM) and an EC50 (read-out: EC50 values [Well 1], B sample, passage 36) of 62.5 ng/mL (≈ 107 nM). The EC50 (read-out: EC50 values [Well 1], B sample, passage 37) was 62.5 ng/mL (≈ 107 nM), the EC50 (read-out: EC50 values [Well 1], B sample, passage 38) was 62.5 ng/mL (≈ 107 nM) and the EC50 (read-out: EC50 values [Well 1], B sample, passage 39) was 125 ng/mL (≈ 214 nM). For the same compound, the EC50 (read-out: EC50 values [Well 1], B sample, passage 40) was 250 ng/mL (≈ 429 nM), the EC50 (read-out: EC50 values [Well 1], B sample, passage 41) was 500 ng/mL (≈ 858 nM) and the EC50 (read-out: EC50 values [Well 1], B sample, passage 42) was 500 ng/mL (≈ 858 nM). It also gave an EC50 (read-out: EC50 values [Well 1], B sample, passage 43) of 500 ng/mL (≈ 858 nM), an EC50 (read-out: EC50 values [Well 1], B sample, passage 44) of 500 ng/mL (≈ 858 nM) and an EC50 (read-out: EC50 values [Well 1], B sample, passage 45) of 500 ng/mL (≈ 858 nM). The EC50 (read-out: EC50 values [Well 1], B sample, passage 46) was 500 ng/mL (≈ 858 nM), the EC50 (read-out: EC50 values [Well 1], B sample, passage 47) was 500 ng/mL (≈ 858 nM) and the EC50 (read-out: EC50 values [Well 1], B sample, passage 48) was 1000 ng/mL (≈ 1720 nM). It also gave an EC50 (read-out: EC50 values [Well 1], B sample, passage 49) of 1000 ng/mL (≈ 1720 nM), an EC50 (read-out: EC50 values [Well 1], B sample, passage 50 (END)) of 1000 ng/mL (≈ 1720 nM) and an EC50 (read-out: EC50 values [Well 2], A sample, passage 1) of 0.024 ng/mL (≈ 0.0412 nM). For the same compound, the EC50 (read-out: EC50 values [Well 2], A sample, passage 2) was 0.024 ng/mL (≈ 0.0412 nM), the EC50 (read-out: EC50 values [Well 2], A sample, passage 3) was 0.024 ng/mL (≈ 0.0412 nM) and the EC50 (read-out: EC50 values [Well 2], A sample, passage 4) was 0.024 ng/mL (≈ 0.0412 nM). It also gave an EC50 (read-out: EC50 values [Well 2], A sample, passage 5) of 0.024 ng/mL (≈ 0.0412 nM), an EC50 (read-out: EC50 values [Well 2], A sample, passage 6) of 0.049 ng/mL (≈ 0.0841 nM) and an EC50 (read-out: EC50 values [Well 2], A sample, passage 7) of 0.024 ng/mL (≈ 0.0412 nM). It also gave an EC50 (read-out: EC50 values [Well 2], A sample, passage 8) of 0.024 ng/mL (≈ 0.0412 nM), an EC50 (read-out: EC50 values [Well 2], A sample, passage 9) of 0.049 ng/mL (≈ 0.0841 nM) and an EC50 (read-out: EC50 values [Well 2], A sample, passage 13) of 0.195 ng/mL (≈ 0.334 nM). The EC50 (read-out: EC50 values [Well 2], A sample, passage 14) was 0.391 ng/mL (≈ 0.671 nM), the EC50 (read-out: EC50 values [Well 2], A sample, passage 15) was 0.391 ng/mL (≈ 0.671 nM) and the EC50 (read-out: EC50 values [Well 2], A sample, passage 17) was 1.56 ng/mL (≈ 2.68 nM).
